Laboratory results from PubChem BioAssay (NCI).
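Interpolation was linear, between the two tested concentrations surrounding the appropriate level; five concentrations were tested over 48 hours in 96-well plates. Here, GI50 denotes the concentration required for 50% inhibition of growth. TGI marks complete inhibition of growth.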

What was measured:
Assay in all cases: NCI anticancer screen, dose series, 48 h
786-0 renal = tested on: 786-0 renal
A498 renal = tested on: A498 renal
A549 NSCLC = tested on: A549 NSCLC
ACHN renal = tested on: ACHN renal
BT-549 breast = tested on: BT-549 breast
CAKI-1 renal = tested on: CAKI-1 renal
CCRF-CEM leukemia = tested on: CCRF-CEM leukemia
COLO 205 colon = tested on: COLO 205 colon
DU-145 prostate = tested on: DU-145 prostate
EKVX NSCLC = tested on: EKVX NSCLC
HCC-2998 colon = tested on: HCC-2998 colon
HCT-116 colon = tested on: HCT-116 colon
HCT-15 colon = tested on: HCT-15 colon
HL-60(TB) leukemia = tested on: HL-60(TB) leukemia
HOP-62 NSCLC = tested on: HOP-62 NSCLC
HOP-92 NSCLC = tested on: HOP-92 NSCLC
HS 578T breast = tested on: HS 578T breast
HT29 colon = tested on: HT29 colon
IGROV1 ovarian = tested on: IGROV1 ovarian
K-562 leukemia = tested on: K-562 leukemia
KM12 colon = tested on: KM12 colon
LOX IMVI melanoma = tested on: LOX IMVI melanoma
M14 melanoma = tested on: M14 melanoma
MALME-3M melanoma = tested on: MALME-3M melanoma
MCF7 breast = tested on: MCF7 breast
MDA-MB-231 breast = tested on: MDA-MB-231 breast
MDA-MB-435 = tested on: MDA-MB-435
MDA-MB-468 breast = tested on: MDA-MB-468 breast
MOLT-4 leukemia = tested on: MOLT-4 leukemia
NCI-H226 lung = tested on: NCI-H226 lung
NCI-H23 lung = tested on: NCI-H23 lung
NCI-H460 lung = tested on: NCI-H460 lung
NCI-H522 lung = tested on: NCI-H522 lung
NCI/ADR-RES ovarian = tested on: NCI/ADR-RES ovarian
OVCAR-3 ovarian = tested on: OVCAR-3 ovarian
OVCAR-4 ovarian = tested on: OVCAR-4 ovarian
OVCAR-5 ovarian = tested on: OVCAR-5 ovarian
OVCAR-8 ovarian = tested on: OVCAR-8 ovarian
PC-3 prostate = tested on: PC-3 prostate
RPMI-8226 leukemia = tested on: RPMI-8226 leukemia
RXF 393 renal = tested on: RXF 393 renal
SF-268 CNS = tested on: SF-268 CNS
SF-295 CNS = tested on: SF-295 CNS
SF-539 CNS = tested on: SF-539 CNS
SK-MEL-2 melanoma = tested on: SK-MEL-2 melanoma
SK-MEL-28 melanoma = tested on: SK-MEL-28 melanoma
SK-MEL-5 melanoma = tested on: SK-MEL-5 melanoma
SK-OV-3 ovarian = tested on: SK-OV-3 ovarian
SN12C renal = tested on: SN12C renal
SNB-19 CNS = tested on: SNB-19 CNS
SNB-75 CNS = tested on: SNB-75 CNS
SR leukemia = tested on: SR leukemia
SW-620 colon = tested on: SW-620 colon
T-47D breast = tested on: T-47D breast
TK-10 renal = tested on: TK-10 renal
U251 CNS = tested on: U251 CNS
UACC-257 melanoma = tested on: UACC-257 melanoma
UACC-62 melanoma = tested on: UACC-62 melanoma
UO-31 renal = tested on: UO-31 renal

With `O=C(COc1ccc(/C=C2/C(=O)Nc3ccc(Cl)cc32)cc1)Nc1ccc(Br)cc1` the GI50 (786-0 renal) was 1.78 µM, the TGI (786-0 renal) was 3.21 µM and the GI50 (A498 renal) was 7.37 µM. It also gave a TGI (A498 renal) of 19.6 µM, a GI50 (A549 NSCLC) of 1.52 µM and a TGI (A549 NSCLC) of 3.28 µM. For the same compound, the GI50 (ACHN renal) was 1.2 µM, the TGI (ACHN renal) was 2.47 µM and the GI50 (BT-549 breast) was 1.43 µM. The TGI (BT-549 breast) was 4.75 µM, the GI50 (CAKI-1 renal) was 1.47 µM and the TGI (CAKI-1 renal) was 3.58 µM. For the same compound, the GI50 (CCRF-CEM leukemia) was 2.11 µM, the TGI (CCRF-CEM leukemia) was 5.54 µM and the GI50 (COLO 205 colon) was 4.61 µM. It also gave a TGI (COLO 205 colon) of 17.1 µM, a GI50 (DU-145 prostate) of 2.38 µM and a TGI (DU-145 prostate) of 6.52 µM. The GI50 (EKVX NSCLC) was 1.92 µM, the TGI (EKVX NSCLC) was 5.99 µM and the GI50 (HCC-2998 colon) was 4.46 µM. For the same compound, the TGI (HCC-2998 colon) was 17.6 µM, the GI50 (HCT-116 colon) was 1.55 µM and the TGI (HCT-116 colon) was 3.09 µM. It also gave a GI50 (HCT-15 colon) of 1.4 µM, a TGI (HCT-15 colon) of 10.1 µM and a GI50 (HL-60(TB) leukemia) of 3.51 µM. For the same compound, the TGI (HL-60(TB) leukemia) was 14.9 µM, the GI50 (HOP-62 NSCLC) was 1.62 µM and the TGI (HOP-62 NSCLC) was 3.79 µM. It also gave a GI50 (HOP-92 NSCLC) of 1.61 µM, a TGI (HOP-92 NSCLC) of 3.83 µM and a GI50 (HS 578T breast) of 2.02 µM. The TGI (HS 578T breast) was 6.68 µM, the GI50 (HT29 colon) was 2.87 µM and the TGI (HT29 colon) was 9.07 µM. The GI50 (IGROV1 ovarian) was 2.24 µM, the TGI (IGROV1 ovarian) was 8.14 µM and the GI50 (K-562 leukemia) was 2.11 µM. The TGI (K-562 leukemia) was 12.7 µM, the GI50 (KM12 colon) was 2.47 µM and the TGI (KM12 colon) was 11.6 µM. For the same compound, the GI50 (LOX IMVI melanoma) was 1.36 µM, the TGI (LOX IMVI melanoma) was 2.64 µM and the GI50 (M14 melanoma) was 1.67 µM. For the same compound, the TGI (M14 melanoma) was 5.81 µM, the GI50 (MALME-3M melanoma) was 1.5 µM and the TGI (MALME-3M melanoma) was 3.68 µM. It also gave a GI50 (MCF7 breast) of 2.03 µM, a TGI (MCF7 breast) of 7.86 µM and a GI50 (MDA-MB-231 breast) of 1.36 µM. It also gave a TGI (MDA-MB-231 breast) of 2.88 µM, a GI50 (MDA-MB-435) of 3.45 µM and a TGI (MDA-MB-435) of 13.5 µM. The GI50 (MDA-MB-468 breast) was 10.3 µM, the TGI (MDA-MB-468 breast) was 22 µM and the GI50 (MOLT-4 leukemia) was 2.61 µM. For the same compound, the TGI (MOLT-4 leukemia) was 8.48 µM, the GI50 (NCI-H226 lung) was 1.55 µM and the TGI (NCI-H226 lung) was 3.81 µM. The GI50 (NCI-H23 lung) was 1.66 µM, the TGI (NCI-H23 lung) was 3.46 µM and the GI50 (NCI-H460 lung) was 1.91 µM. For the same compound, the TGI (NCI-H460 lung) was 3.79 µM, the GI50 (NCI-H522 lung) was 1.71 µM and the TGI (NCI-H522 lung) was 4.64 µM. The GI50 (NCI/ADR-RES ovarian) was 1.77 µM, the TGI (NCI/ADR-RES ovarian) was 4.04 µM and the GI50 (OVCAR-3 ovarian) was 1.7 µM. The TGI (OVCAR-3 ovarian) was 3.18 µM, the GI50 (OVCAR-4 ovarian) was 1.85 µM and the TGI (OVCAR-4 ovarian) was 3.93 µM. It also gave a GI50 (OVCAR-5 ovarian) of 2.29 µM, a TGI (OVCAR-5 ovarian) of 7.61 µM and a GI50 (OVCAR-8 ovarian) of 1.87 µM. It also gave a TGI (OVCAR-8 ovarian) of 3.93 µM, a GI50 (PC-3 prostate) of 1.79 µM and a TGI (PC-3 prostate) of 6.25 µM. The GI50 (RPMI-8226 leukemia) was 4.04 µM, the TGI (RPMI-8226 leukemia) was 14.8 µM and the GI50 (RXF 393 renal) was 1.59 µM. For the same compound, the TGI (RXF 393 renal) was 3.24 µM, the GI50 (SF-268 CNS) was 2.42 µM and the TGI (SF-268 CNS) was 10.8 µM. It also gave a GI50 (SF-295 CNS) of 1.74 µM, a TGI (SF-295 CNS) of 3.8 µM and a GI50 (SF-539 CNS) of 1.59 µM. It also gave a TGI (SF-539 CNS) of 3.04 µM, a GI50 (SK-MEL-2 melanoma) of 2.58 µM and a TGI (SK-MEL-2 melanoma) of 10.8 µM. The GI50 (SK-MEL-28 melanoma) was 1.98 µM, the TGI (SK-MEL-28 melanoma) was 5.02 µM and the GI50 (SK-MEL-5 melanoma) was 2.14 µM. It also gave a TGI (SK-MEL-5 melanoma) of 5.47 µM, a GI50 (SK-OV-3 ovarian) of 1.49 µM and a TGI (SK-OV-3 ovarian) of 4.12 µM. For the same compound, the GI50 (SN12C renal) was 1.75 µM, the TGI (SN12C renal) was 4.39 µM and the GI50 (SNB-19 CNS) was 2.72 µM. For the same compound, the TGI (SNB-19 CNS) was 8.08 µM, the GI50 (SNB-75 CNS) was 5.09 µM and the TGI (SNB-75 CNS) was 20.3 µM. The GI50 (SR leukemia) was 2.93 µM, the TGI (SR leukemia) was 12.1 µM and the GI50 (SW-620 colon) was 1.89 µM. For the same compound, the TGI (SW-620 colon) was 3.82 µM, the GI50 (T-47D breast) was 1.93 µM and the TGI (T-47D breast) was 7.56 µM. The GI50 (TK-10 renal) was 2.74 µM, the TGI (TK-10 renal) was 5.51 µM and the GI50 (U251 CNS) was 1.75 µM. It also gave a TGI (U251 CNS) of 3.29 µM, a GI50 (UACC-257 melanoma) of 4.3 µM and a TGI (UACC-257 melanoma) of 16.5 µM. The GI50 (UACC-62 melanoma) was 1.35 µM, the TGI (UACC-62 melanoma) was 5.72 µM and the GI50 (UO-31 renal) was 0.221 µM. The TGI (UO-31 renal) was 2.27 µM.
